From patent US20250154115A1, “ARYLBENZOISOXAZOLE COMPOUNDS AS IP6K AND IPMK INHIBITORS AND METHODS OF USE THEREOF” (THE UNIVERSITY OF NORTH CAROLINA AT CHAPEL HILL, priority 2022, published 2025) come the findings set out here.

Common to all, as to format: biochemical
Holding throughout (settings): enzyme-coupled assay

The target in test [1] is IP6K3 (Homo sapiens (Human), UniProt Q96PC2). As to the kind of experiment: Enzyme-coupled assay of IP6K3 activity (Dipp1-coupled, malachite green Pi release).
Sequence of IP6K3 (Q96PC2 whole entry): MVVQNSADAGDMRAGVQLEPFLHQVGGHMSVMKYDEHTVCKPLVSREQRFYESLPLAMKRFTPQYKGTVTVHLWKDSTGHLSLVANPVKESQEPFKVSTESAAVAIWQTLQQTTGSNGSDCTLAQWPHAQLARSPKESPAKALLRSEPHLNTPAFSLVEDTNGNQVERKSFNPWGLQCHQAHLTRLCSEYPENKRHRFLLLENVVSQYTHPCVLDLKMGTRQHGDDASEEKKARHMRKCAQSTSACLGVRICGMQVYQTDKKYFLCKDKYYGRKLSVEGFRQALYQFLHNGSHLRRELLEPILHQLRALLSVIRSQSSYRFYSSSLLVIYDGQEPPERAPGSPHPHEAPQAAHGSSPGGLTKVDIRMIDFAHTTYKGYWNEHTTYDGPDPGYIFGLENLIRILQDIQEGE
The target of test [2] is IP6K1 (Homo sapiens (Human), UniProt Q92551). As to the kind of experiment: Enzyme-coupled assay of IP6K1 activity (Dipp1-coupled, malachite green Pi release). The procedure: (§1) […] The cells were disrupted using a constant cell disruption system (Constant Systems) under 20 kPsi.
Sequence of IP6K1 (Q92551 whole entry): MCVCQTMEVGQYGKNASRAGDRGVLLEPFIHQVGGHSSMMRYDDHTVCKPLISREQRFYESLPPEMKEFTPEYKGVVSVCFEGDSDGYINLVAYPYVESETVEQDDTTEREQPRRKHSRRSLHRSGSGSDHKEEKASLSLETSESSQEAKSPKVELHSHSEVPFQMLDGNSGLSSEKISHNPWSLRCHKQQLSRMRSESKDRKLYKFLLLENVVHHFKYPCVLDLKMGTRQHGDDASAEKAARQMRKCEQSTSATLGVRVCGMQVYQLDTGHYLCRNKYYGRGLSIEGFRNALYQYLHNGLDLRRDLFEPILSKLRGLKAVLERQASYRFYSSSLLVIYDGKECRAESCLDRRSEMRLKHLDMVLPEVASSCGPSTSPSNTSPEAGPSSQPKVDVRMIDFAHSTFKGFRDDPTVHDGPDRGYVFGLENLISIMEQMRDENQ
(§2) Pi release was determined with a malachite green colorimetric assay.^45 Where indicated, TNP (Cayman Chemical) was added to the assays (FIG. 2A-E).

In test [3] the target is IP6K2 (Homo sapiens (Human), UniProt Q9UHH9). As to the kind of experiment: Enzyme-coupled assay of IP6K2 activity (Dipp1-coupled, malachite green Pi release). As for the experimental part:
as §1, §2

Test [4] concerns the target IPMK (Homo sapiens (Human), UniProt Q8NFU5). The experiment in a line: Enzyme-coupled assay, IPMK IC50.

Structures can show the parent of a compound that is named as a salt.

Sequence of IPMK (Q8NFU5 whole entry, species assumed): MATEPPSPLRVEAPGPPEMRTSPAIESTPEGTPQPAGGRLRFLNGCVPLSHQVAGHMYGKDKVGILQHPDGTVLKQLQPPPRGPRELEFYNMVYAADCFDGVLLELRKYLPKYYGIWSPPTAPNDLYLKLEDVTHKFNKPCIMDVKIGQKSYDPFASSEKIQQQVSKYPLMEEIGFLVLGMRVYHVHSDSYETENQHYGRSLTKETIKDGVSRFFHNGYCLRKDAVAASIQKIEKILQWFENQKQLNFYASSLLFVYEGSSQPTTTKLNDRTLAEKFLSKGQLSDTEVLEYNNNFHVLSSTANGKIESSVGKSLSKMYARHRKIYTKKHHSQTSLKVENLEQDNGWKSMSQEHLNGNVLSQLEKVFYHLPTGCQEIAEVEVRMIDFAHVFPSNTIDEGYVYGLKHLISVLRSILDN
Sequence of IP6K2 (Q9UHH9 whole entry): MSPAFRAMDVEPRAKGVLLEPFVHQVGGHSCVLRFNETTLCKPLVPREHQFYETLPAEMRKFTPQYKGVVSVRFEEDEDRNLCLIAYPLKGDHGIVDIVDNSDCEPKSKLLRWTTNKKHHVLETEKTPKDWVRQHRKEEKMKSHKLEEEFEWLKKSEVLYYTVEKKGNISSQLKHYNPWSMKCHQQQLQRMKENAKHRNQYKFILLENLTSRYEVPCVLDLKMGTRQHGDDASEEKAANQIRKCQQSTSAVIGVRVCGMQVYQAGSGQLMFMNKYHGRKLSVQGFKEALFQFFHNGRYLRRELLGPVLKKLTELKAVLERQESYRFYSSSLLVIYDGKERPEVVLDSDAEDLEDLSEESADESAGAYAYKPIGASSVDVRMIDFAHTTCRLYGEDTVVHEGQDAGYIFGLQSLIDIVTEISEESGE

What is called IC50 is the point on the concentration scale where inhibition reaches its midpoint. Take `CN(C)CCOc1cccc(-c2onc3ccc(-c4nnn[nH]4)cc23)c1` [Compound 78]: the IC50 in test [1] (Table 4) is 0.1 to 1 µM; in test [2] (Table 4), 0.1 to 1 µM; in test [3] (Table 4), 0.1 to 1 µM; in test [4] (Table 4), < 0.01 µM.
As for `c1ccc(-c2onc3ccc(-c4nc[nH]n4)cc23)cc1` [Compound 60], the IC50 in test [1] (Table 4) is 1 to 100 µM; in test [2] (Table 4), 1 to 100 µM; in test [3] (Table 4), 0.1 to 1 µM; in test [4] (Table 4) it was 0.01 to 0.1 µM.
For `O=C(O)/C=C/c1ccc2noc(-c3ccc(-c4ccccc4)cc3)c2c1` [Compound 16], the IC50 in test [1] (Table 1) lay in the range of 0.1 to 1 µM.
As for `CNC(=O)c1ccc2noc(-c3ccc(-c4ccccc4)cc3)c2c1` [Compound 26], the IC50 lay within 0.1 to 1 µM in test [1] (Table 2), 0.01 to 0.1 µM in test [2] (Table 2), 0.1 to 1 µM in test [3] (Table 2) and 0.01 to 0.1 µM in test [4] (Table 2).
Turning to `CN(C)CCOc1ccc(-c2onc3ccc(-c4nnn[nH]4)cc23)cc1` [Compound 79], the IC50 in test [1] (Table 4) lay in the range of 0.1 to 1 µM; in test [2] (Table 4) it was 0.1 to 1 µM; in test [3] (Table 4), 0.1 to 1 µM; in test [4] (Table 4), 1 to 100 µM.
As to `CC(C)NC(=O)c1ccc2noc(-c3ccccc3)c2c1` [Compound 22], the IC50 lay within 1 to 100 µM in test [1] (Table 2), 1 to 100 µM in test [2] (Table 2) and 0.1 to 1 µM in test [3] (Table 2). In addition, the “IPMK IC50” value in test [4] (Table 2) is “−”.
For the compound `c1ccc(Oc2ccc(-c3onc4ccc(-c5nnn[nH]5)cc34)cc2)cc1` [Compound 70], the half-inhibitory concentration (IC50) in test [1] (Table 4) is 0.1 to 1 µM; in test [2] (Table 4) it was 1 to 100 µM; in test [3] (Table 4), 0.1 to 1 µM; in test [4] (Table 4), < 0.01 µM.
Consider `O=C(O)c1ccc2noc(-c3ccc(NC(=O)C4CC4)cc3)c2c1` [Compound 35], for which the IC50 in test [1] (Table 2) was in the range of 0.1 to 1 µM; in test [2] (Table 2) it was 1 to 100 µM; in test [3] (Table 2), 1 to 100 µM; in test [4] (Table 2), 1 to 100 µM.
On to `COc1ccccc1-c1onc2ccc(-c3nnn[nH]3)cc12` [Compound 77], for which the IC50 fell in the range of 0.1 to 1 µM in test [1] (Table 4), 0.01 to 0.1 µM in test [2] (Table 4), 0.01 to 0.1 µM in test [3] (Table 4) and 0.01 to 0.1 µM in test [4] (Table 4).
`Cc1cc(C)cc(-c2onc3ccc(C(=O)O)cc23)c1` [Compound 19]: the IC50 lay in the range of 1 to 100 µM in test [1] (Table 2) and 0.1 to 1 µM in test [4] (Table 2).
`O=C(O)c1ccc2noc(-c3cccc(-c4ccccc4)c3)c2c1` [Compound 34]: the IC50 in test [1] (Table 2) lay within 0.1 to 1 µM; in test [3] (Table 2), 0.1 to 1 µM; in test [4] (Table 2) it was 0.01 to 0.1 µM.
Turning to `CN(C)C(=O)/C=C/c1ccc2noc(-c3ccccc3)c2c1` [Compound 9], in test [1] (Table 1), the “IP6K3 IC50” value is “−”.
As to `O=C(O)c1ccc2noc(-c3ccc(NC(=O)C4CCCC4)cc3)c2c1` [Compound 43], the 50% inhibitory concentration (IC50) is 0.1 to 1 µM in test [1] (Table 2) and 1 to 100 µM in test [4] (Table 2).
The corresponding values for `O=C(O)c1ccc2noc(-c3ccc(NC(=O)c4ccccc4)cc3)c2c1` [Compound 46] are 0.1 to 1 µM and 1 to 100 µM.
Regarding `Cc1cc(C)cc(-c2onc3ccc(/C=C/C(=O)O)cc23)c1` [Compound 11], the IC50 in test [1] (Table 1), in test [2] (Table 1) and in test [3] (Table 1) was 0.1 to 1 µM each time.
In the case of `CC(C)(C)OC(=O)N1CCC(Oc2cccc(-c3onc4ccc(-c5nnn[nH]5)cc34)c2)CC1` [Compound 81, tert-butyl 4-(3-(5-(1H-tetrazol-5-yl)benzo[c]isoxazol-3-yl)phenoxy)piperidine-1-carboxylate], the IC50 in test [1] (Table 4) was […]; in test [3] (Table 4), […]; in test [4] (Table 4) it was […].
Turning to `c1cc(OC2CCNCC2)cc(-c2onc3ccc(-c4nnn[nH]4)cc23)c1` [Compound 82, 3-(3-(piperidin-4-yloxy)phenyl)-5-(1H-tetrazol-5-yl)benzo[c]isoxazole hydrochloride], the IC50 in test [1] (Table 4) is […]; in test [3] (Table 4), […]; in test [4] (Table 4) it was […].
As for `Cc1cc(C)cc(-c2onc3ccc([C@@H]4C[C@H]4C(=O)O)cc23)c1` [Compound 17], the IC50 in test [1] (Table 1) fell in the range of 1 to 100 µM; in test [2] (Table 1), 0.01 to 0.1 µM; in test [3] (Table 1) it was 0.01 to 0.1 µM.
With `O=C(O)c1ccc2noc(-c3ccc(Oc4ncc(Cl)cc4Cl)cc3)c2c1` [Compound 28], the IC50 in test [1] (Table 2) was 1 to 100 µM; in test [2] (Table 2), 0.1 to 1 µM; in test [4] (Table 2), 1 to 100 µM.
For the compound `O=C(O)c1ccc2noc(-c3cccc(Oc4ccccc4)c3)c2c1` [Compound 33], the IC50 lay in the range of 0.1 to 1 µM in test [1] (Table 2) and 0.01 to 0.1 µM in test [4] (Table 2).
For the compound `O=C(O)/C=C/c1ccc2noc(-c3ccc(OC(F)(F)F)cc3)c2c1` [Compound 14], the IC50 in test [1] (Table 1) lay within 1 to 100 µM.
Regarding `O=C(O)c1ccc2noc(-c3cccc(NC(=O)C4CC4)c3)c2c1` [Compound 42], the IC50 in test [1] (Table 2) lay in the range of 1 to 100 µM; in test [4] (Table 2) it was 0.01 to 0.1 µM.
Consider `O=C(O)c1ccc2noc(-c3ccc(NC(=O)c4ccncn4)cc3)c2c1` [Compound 47], for which, in test [1] (Table 2), the IC50 fell in the range of 0.1 to 1 µM. In addition, the “IPMK IC50” value in test [4] (Table 2) is “−”.
As for `O=C(O)c1ccc2noc(-c3ccc(Cc4ccccc4)cc3)c2c1` [Compound 54, 3-(4-benzylphenyl)benzo[c]isoxazole-5-carboxylic acid], the IC50 in test [1] (Table 3) lay in the range of 1 to 100 µM; in test [4] (Table 3), 0.01 to 0.1 µM.
